18 molecules from ChEMBL document CHEMBL1614632, “Trend analysis of a database of intravenous pharmacokinetic parameters in humans for 670 drug compounds” (Drug Metab Dispos, 2008) can be followed below.

Series [1] can be described thus: clinical. Conditions: human, in vivo, iv.
Series [2] in a line: clinical. The settings on record: human, in vivo, iv, t1/2.
Series [3] in a line: clinical. Conditions: human, in vivo, iv, CL.
The conditions of series [4]: human, in vivo, iv.
Series [5] can be described thus: clinical. The settings on record: human, in vivo, iv. The source holds these as a separate data set.
The conditions of series [6]: human, in vivo, iv. The source holds these as a separate data set.
For series [7] the following is noted: human, in vivo, iv. The source holds these as a separate data set.
For series [8] the following is noted: human, in vivo, iv. The source holds these as a separate data set.
A short description of series [9]: clinical. The settings on record: human, in vivo, iv, Vdss.
For series [10] the following is noted: human, in vivo, iv. This is another data set of the same source.

What is called MRT is the average time that molecules of a dose stay in the body. The term half-life denotes the time in which the quantity being followed falls by half. High values mean slow decline, low ones rapid decline. As a reminder, the clearance is the rate of elimination divided by the concentration. Low readings indicate a low capacity for elimination, high ones a high capacity for elimination. One may read the Vdss as the apparent volume that relates the amount in the body to the concentration in plasma or blood. Read a high Vdss as extensive tissue distribution. The term fraction unbound denotes free concentration divided by total concentration. High values mean much free substance, low ones little free substance. By Vd is commonly meant the apparent volume that relates the amount in the body to the concentration in plasma or blood. Low values mean confinement near the circulation, high ones extensive tissue distribution.

Regarding `COc1ccnc(C[S+]([O-])c2nc3ccc(OC(F)F)cc3[nH]2)c1OC` (centres undefined) [PANTOPRAZOLE], the MRT in “clinical [1]” came out at 1.9 h. This molecule gave a half-life in “clinical [2]” of 1.9 h. This molecule also came in with a clearance in the series “clinical [3]” of 2.2 mL/min/kg. This molecule also gave a distribution volume (Vdss) in series [4] of 0.17 L/kg. The molecule also gave an unbound share (fraction unbound) in the series “clinical [5]” of 0.02.
The molecule `CCC1=C[C@@H]2CN(C1)Cc1c([nH]c3ccccc13)[C@@](C(=O)OC)(c1cc3c(cc1OC)N(C)[C@H]1[C@@](O)(C(=O)OC)[C@H](OC(C)=O)[C@]4(CC)C=CCN5CC[C@]31[C@@H]54)C2` (stereo in doubt; form 2) [VINORELBINE] registered a t1/2 in [6] of 26 h. The molecule further yielded a CL in series [7] of 20 mL/min/kg. In addition, in series [8], the MRT is given as 18 h. Also, the Vdss in series [4] was 23 L/kg. For the same molecule, the fraction unbound in “clinical [5]” came out at 0.87.
`O=P1(N(CCCl)CCCl)NCCCO1` (centres undefined) [CYCLOPHOSPHAMIDE ANHYDROUS]: the t1/2 in series [6] is reported as 8 h. This molecule also had a mean residence time (MRT) in “clinical [1]” of 11 h. The CL in series [7] is reported as 1.1 mL/min/kg.
In turn, `NCCCC[C@H](NC(=O)[C@@H](Cc1cc(Br)c(O)c(Br)c1)NC(=O)N1CCC(N2Cc3ccccc3NC2=O)CC1)C(=O)N1CCN(c2ccncc2)CC1` [OLCEGEPANT] showed a mean residence time (MRT) in “clinical [1]” of 1.9 h. The molecule further had a half-life in “clinical [2]” of 2.5 h. The clearance in “clinical [3]” amounted to 2.6 mL/min/kg. Also, the Vdss in [4] was found to be 0.31 L/kg.
In “clinical [1]”, `O=[N+]([O-])O[C@H]1CO[C@H]2[C@@H]1OC[C@H]2O[N+](=O)[O-]` [ISOSORBIDE DINITRATE] returned a mean residence time (MRT) of 1 h. This molecule also had a half-life in “clinical [2]” of 1.69 h. In the series “clinical [3]”, this molecule gave a clearance of 31 mL/min/kg. In addition, in [4], the volume of distribution (Vdss) amounted to 1.9 L/kg. In the series “clinical [5]”, the free fraction (fraction unbound) was determined as 0.72.
In the series “clinical [1]”, `O=C(CCCN1CCC(O)(c2ccc(Cl)cc2)CC1)c1ccc(F)cc1` [HALOPERIDOL] yielded an MRT of 36 h. In “clinical [9]”, this molecule registered a volume of distribution (Vd) of 17 L/kg. Besides, in series [10], the fu was 0.08. This molecule showed a half-life in “clinical [2]” of 35 h.
In “clinical [2]”, `C[C@@H](O)[C@H]1C(=O)N2C(C(=O)O)=C(S[C@@H]3CN[C@H](C(=O)N(C)C)C3)[C@H](C)[C@H]12` [MEROPENEM] showed a half-life of 1 h. For the same molecule, the clearance in the series “clinical [3]” came out at 3.9 mL/min/kg. In addition, the mean residence time (MRT) in series [8] is 1.3 h. The fraction unbound in the series “clinical [5]” is 0.87.
`COc1cc2c(cc1OC)[C@@H](Cc1cc(OC)c(OC)c(OC)c1)[N+](C)(CCCOC(=O)CC/C=C/CCC(=O)OCCC[N+]1(C)CCc3cc(OC)c(OC)cc3[C@H]1Cc1cc(OC)c(OC)c(OC)c1)CC2` (some centres undefined) had a t1/2 in [6] of 0.83 h. In the series “clinical [1]”, this molecule gave a mean residence time MRT of 0.87 h. In “clinical [9]”, this molecule registered a Vd of 0.27 L/kg. In addition, the clearance in the series “clinical [3]” stood at 5.2 mL/min/kg. In the series “clinical [5]”, this molecule came in with a fraction unbound of 0.7.
In [6], GADOVERSETAMIDE showed a t1/2 of 1.7 h. The same molecule registered a CL in [7] of 1.2 mL/min/kg. Further, the fu in series [10] was determined as 1. This molecule came in with an MRT in series [8] of 2.2 h. The molecule also gave a Vdss in series [4] of 0.16 L/kg.
In the case of `COC(=O)C(c1ccccc1)C1CCCCN1` (centres undefined) [METHYLPHENIDATE], the t1/2 in series [6] is recorded as 4.8 h. The molecule also returned a CL in series [7] of 0.55 mL/min/kg. This molecule registered a mean residence time (MRT) in series [8] of 4.5 h. Moreover, the Vdss in series [4] is 2.2 L/kg. The same molecule gave a fraction unbound in “clinical [5]” of 0.85.
`O=[N+]([O-])O[C@@H]1CO[C@H]2[C@@H]1OC[C@@H]2O` (stereo in doubt; form 1) [ISOSORBIDE MONONITRATE] yielded a t1/2 in series [6] of 1.9 h. The CL in series [7] came to 6.2 mL/min/kg. Further, in series [8], the MRT came out at 2.3 h. This molecule also had a Vdss in series [4] of 0.86 L/kg.
Turning to `CCCCS(=O)(=O)N[C@@H](Cc1ccc(OCCCCC2CCNCC2)cc1)C(=O)O` [TIROFIBAN], the half-life in the series “clinical [2]” is 1.6 h. The molecule also gave an MRT in series [8] of 1.8 h. Further, the Vdss in series [4] was found to be 0.99 L/kg. Besides, the unbound share (fraction unbound) in “clinical [5]” was 0.36.
On to CARBOPLATIN, for which, in series [6], the t1/2 came to 2 h. In series [7], this molecule registered a CL of 1.5 mL/min/kg. The fu in series [10] stood at 1. The molecule also displayed an MRT in series [8] of 3 h. This molecule yielded a Vdss in series [4] of 0.26 L/kg.
In series [6], GENTAMICIN yielded a t1/2 of 4.7 h. Also, in [10], the fu is given as 1. Also, the mean residence time (MRT) in series [8] is 5.5 h.
`Clc1cccc(Cl)c1N=C1NCCN1` [CLONIDINE] registered a t1/2 in [6] of 7.6 h. For the same molecule, the mean residence time (MRT) in “clinical [1]” is 14 h. In the series “clinical [9]”, this molecule had a Vd of 3.3 L/kg. The molecule also showed a clearance in the series “clinical [3]” of 4 mL/min/kg. In the series “clinical [5]”, this molecule came in with a free fraction (fraction unbound) of 0.56.
The molecule `C[C@H]1[C@H](OC(=O)CCC(=O)O)O[C@@H]2O[C@@]3(C)CC[C@H]4[C@H](C)CC[C@@H]1[C@@]24OO3` [ARTESUNATE] returned an MRT in the series “clinical [1]” of 0.32 h. This molecule also displayed a CL in series [7] of 1070 mL/min/kg. Moreover, the half-life in the series “clinical [2]” is 0.22 h. In the series “clinical [5]”, this molecule gave a fraction unbound of 0.25.
`O=[N+]([O-])O[C@@H]1CO[C@H]2[C@@H]1OC[C@@H]2O` (stereo in doubt; form 2) [ISOSORBIDE MONONITRATE]: the t1/2 in series [6] amounted to 4.1 h. The molecule also registered a CL in series [7] of 2 mL/min/kg. In “clinical [9]”, the Vd turned out to be 0.7 L/kg. Further, in series [8], the MRT was determined as 5.8 h.
In turn, `COC(=O)CCc1ccc(OCC(O)CNC(C)C)cc1` (centres undefined) [ESMOLOL] registered a t1/2 in series [6] of 0.15 h. Besides, the mean residence time (MRT) in the series “clinical [1]” was 0.07 h. The molecule further returned a Vd in “clinical [9]” of 1.2 L/kg. For the same molecule, in “clinical [3]”, the clearance was determined as 290 mL/min/kg. This molecule registered a fraction unbound in “clinical [5]” of 0.59.
